In patent publication US7897371B2, “Activation of mutated RAC-PK” (Novartis AG, priority 1995, dated 2011):
Read-outs that look alike come from different tables or passages of the source.

Legend:
mixed isoforms of PKC = assay: Protein kinase inhibition assay, mixed isoforms of PKC (histone H1 substrate); format: biochemical
Protocol: (§1) After incubation on ice for 10 minutes, the reaction was started by the addition of 10µL of 50 mM magnesium acetate and 0.5 mM [.gamma^32P]ATP (100-200 cpm/pmol). For the assay of mixed isoforms of PKC 20µM diacylglycerol, 0.5 mM CaCl.sub2 and 100µM phosphatidylsene were also present in the incubations. The assays were carried out for 15 minutes at 30° C., then terminated and analyzed as described. See Alessi et al., Methods Enzymol, Vol. 255, pp. 279-290 (1995). One unit of activity was that amount of enzyme that catalyzed the phosphorylation of 1 nmol os substrate in 1 minute. The final concentration of DMSO in each assay was 1% (by vol). […] Mixed isoforms of PKC were assayed using histone H1 as substrate, while MAPKAP-K11 and p70 S6 kinase were assayed using the peptide […] (SEQ ID NO: 14). See Leighton et al. (1995), supra. PK B was assayed with the peptide […] [9] (SEQ ID NO: 5) and MAPKAP-K2 was assayed with the peptide […] (SEQ ID NO: 27). See Stokoe, Caudwell, Cohen and Cohen, Biochem J, Vol. 296, Pt. 3, pp. 843-849 (1993). p42 MAP kinase was assayed using MBP, and MAPKK-1 and c-Raf1 were assayed as described in Alessi et al., Methods Enzymol (1995), supra.

PK B = PK B (Homo sapiens, UniProt P31749); assay: Protein kinase inhibition assay, PK B (peptide […] substrate); format: biochemical
Protocol: as §1

MAPKAP-K1β = molecular target: T1, MAPKAP-K1β (Oryctolagus cuniculus, UniProt A0A5F9C4L9); assay: Protein kinase inhibition assay, MAPKAP-K1β (peptide […] substrate); format: biochemical, rabbit
T1 construct: from tissue; host or cells: rabbit skeletal muscle

p70 S6 kinase = molecular target: T2, p70 S6 kinase (Rattus norvegicus, UniProt P67999); assay: Protein kinase inhibition assay, p70 S6 kinase (peptide […] substrate); format: biochemical
T2 construct: from tissue; host or cells: rat liver

c-Raf1 = c-Raf1 (Homo sapiens, UniProt P04049); assay: Protein kinase inhibition assay, c-Raf1; format: biochemical
Protocol: as §1

MAPKK-1 = MAPKK-1 (Homo sapiens, UniProt Q02750); assay: Protein kinase inhibition assay, MAPKK-1; format: biochemical
Protocol: as §1

p42 MAP kinase = p42 MAP kinase (Homo sapiens, UniProt P28482); assay: Protein kinase inhibition assay, p42 MAP kinase (MBP substrate); format: biochemical
Protocol: as §1

GSK3 = format: cell-based
MAPKAP kinase-1 = MAPKAP kinase-1 activation by insulin in L6 myotubes; format: cell-based
From the text: (d)—As (c) except that MAPKAP kinase-1 was immunoprecipitated from the lysates and assayed with S6 peptide (filled circles).

RAC-PKα [1] = test system: RAC-PKα
MAPKAP-K2 = molecular target: T3, MAPKAP-K2 (Homo sapiens, UniProt P49137); assay: Protein kinase inhibition assay, MAPKAP-K2 (peptide […] substrate); format: biochemical
T3 construct: cDNA encoding residues 46-400 of human MAPKAP kinase-2 was expressed in E. coli as a GST fusion protein; GST; made in house; host or cells: E. coli
Protocol: as §1

RAC-PKα [2] = format: cell-based, human
MAPKAP kinase-2 = format: cell-based
RAC-PKα [3] = molecular target: T4, RAC-PKα (Homo sapiens, UniProt P31749, T308A); format: biochemical; conditions: COS-1 cells
T4 construct: made in house; host or cells: COS-1 cells (DEAE-dextran transfection, serum-starved), immunoprecipitated with 12CA5 antibody

RAC-PKα [4] = format: biochemical, human; conditions: expressed in COS-1 cells, without MAPKAP kinase-2
GSK3β = format: cell-based, human
RAC-PKα [5] = conditions: 293 cells
p70s6k-Myc = assay: Transient cotransfection of RAC-PKα with p70s6k-Myc; format: cell-based; conditions: coexpression
Protocol: To examine this possibility, the regulation of p70^[…] is investigated in a transient cotransfection assay using human 293 cells. RAC-PKα constructs are prepared by ligating the RAC-PKα cDNA [see Jones et al. (1991), supra] in-frame to the initiator methionine, in the mammalian expression vector pECE. The construct is also subcloned into a CMV promoter-driven expression vector. The construct is confirmed by restriction analysis and sequencing. Constructs expressing Myc-tagged p70^[…] are obtained from Dr. G. Thomas, […] Institut, Basel, Switzerland. Constructs are transfected into COS cells using standard procedures.

p42 MAP kinase, sequence (P28482 whole entry): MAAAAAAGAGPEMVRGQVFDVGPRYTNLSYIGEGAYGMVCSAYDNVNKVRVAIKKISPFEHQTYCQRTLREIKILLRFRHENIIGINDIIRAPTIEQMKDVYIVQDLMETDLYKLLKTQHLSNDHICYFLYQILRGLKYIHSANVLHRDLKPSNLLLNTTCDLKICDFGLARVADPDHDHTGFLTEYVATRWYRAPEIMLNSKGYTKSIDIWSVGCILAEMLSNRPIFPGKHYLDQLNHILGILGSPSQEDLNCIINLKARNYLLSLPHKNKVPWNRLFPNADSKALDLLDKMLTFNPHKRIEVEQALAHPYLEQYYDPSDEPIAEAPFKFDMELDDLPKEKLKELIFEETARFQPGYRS
PK B, sequence (P31749 whole entry): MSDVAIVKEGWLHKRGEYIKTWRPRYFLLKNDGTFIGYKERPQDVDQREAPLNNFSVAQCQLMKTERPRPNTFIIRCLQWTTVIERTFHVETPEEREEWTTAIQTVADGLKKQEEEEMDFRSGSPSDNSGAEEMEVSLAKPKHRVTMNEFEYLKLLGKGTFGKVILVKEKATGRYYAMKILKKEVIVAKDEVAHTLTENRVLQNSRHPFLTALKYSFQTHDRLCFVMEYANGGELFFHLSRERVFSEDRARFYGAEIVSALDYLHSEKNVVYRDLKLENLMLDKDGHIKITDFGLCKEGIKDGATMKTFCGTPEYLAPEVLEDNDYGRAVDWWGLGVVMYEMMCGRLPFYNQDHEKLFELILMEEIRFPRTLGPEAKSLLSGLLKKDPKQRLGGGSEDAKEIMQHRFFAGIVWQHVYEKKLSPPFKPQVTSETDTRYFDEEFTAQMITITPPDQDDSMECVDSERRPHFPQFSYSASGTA
T1 sequence (A0A5F9C4L9 1-740): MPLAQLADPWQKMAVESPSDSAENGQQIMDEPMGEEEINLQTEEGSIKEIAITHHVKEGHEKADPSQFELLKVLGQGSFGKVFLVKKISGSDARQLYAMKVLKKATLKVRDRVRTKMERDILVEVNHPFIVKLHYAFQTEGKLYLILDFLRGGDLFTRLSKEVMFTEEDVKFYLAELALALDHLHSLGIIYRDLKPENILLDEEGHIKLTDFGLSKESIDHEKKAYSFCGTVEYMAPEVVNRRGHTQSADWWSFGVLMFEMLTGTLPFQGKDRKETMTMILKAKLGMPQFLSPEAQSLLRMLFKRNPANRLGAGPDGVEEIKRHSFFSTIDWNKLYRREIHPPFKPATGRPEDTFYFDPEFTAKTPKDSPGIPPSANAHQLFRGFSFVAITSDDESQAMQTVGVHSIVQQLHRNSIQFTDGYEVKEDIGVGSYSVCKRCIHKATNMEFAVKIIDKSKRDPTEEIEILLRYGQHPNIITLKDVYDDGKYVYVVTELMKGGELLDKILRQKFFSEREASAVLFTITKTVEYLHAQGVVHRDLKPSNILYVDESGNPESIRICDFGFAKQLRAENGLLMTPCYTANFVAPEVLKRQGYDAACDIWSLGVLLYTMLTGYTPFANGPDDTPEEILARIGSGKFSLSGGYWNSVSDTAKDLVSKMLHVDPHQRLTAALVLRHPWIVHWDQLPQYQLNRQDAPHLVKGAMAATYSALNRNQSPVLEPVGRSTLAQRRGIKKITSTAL
GSK3β, sequence (P49841 whole entry): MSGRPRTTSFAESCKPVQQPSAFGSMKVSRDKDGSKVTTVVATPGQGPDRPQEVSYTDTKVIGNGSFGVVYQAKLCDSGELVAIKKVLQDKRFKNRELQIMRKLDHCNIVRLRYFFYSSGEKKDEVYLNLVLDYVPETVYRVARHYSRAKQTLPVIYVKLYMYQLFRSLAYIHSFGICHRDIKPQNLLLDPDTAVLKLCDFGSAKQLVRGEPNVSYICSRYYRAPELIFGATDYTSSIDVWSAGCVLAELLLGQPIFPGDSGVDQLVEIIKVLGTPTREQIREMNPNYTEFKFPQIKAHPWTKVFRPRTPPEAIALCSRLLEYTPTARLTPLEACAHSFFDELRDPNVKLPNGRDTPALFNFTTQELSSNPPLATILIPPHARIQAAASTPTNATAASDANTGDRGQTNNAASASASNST
MAPKK-1, sequence (Q02750 whole entry, species assumed): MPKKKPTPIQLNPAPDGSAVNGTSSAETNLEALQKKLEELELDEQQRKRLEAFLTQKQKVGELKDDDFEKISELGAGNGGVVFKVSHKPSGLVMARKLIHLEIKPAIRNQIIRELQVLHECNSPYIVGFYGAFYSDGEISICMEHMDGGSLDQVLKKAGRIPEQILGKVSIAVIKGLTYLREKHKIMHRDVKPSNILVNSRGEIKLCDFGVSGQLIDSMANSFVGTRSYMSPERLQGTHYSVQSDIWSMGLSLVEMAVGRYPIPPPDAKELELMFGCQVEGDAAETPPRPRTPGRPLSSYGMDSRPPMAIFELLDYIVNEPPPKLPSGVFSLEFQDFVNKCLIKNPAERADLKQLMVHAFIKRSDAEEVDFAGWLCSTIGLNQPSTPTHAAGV
c-Raf1, sequence (P04049 whole entry): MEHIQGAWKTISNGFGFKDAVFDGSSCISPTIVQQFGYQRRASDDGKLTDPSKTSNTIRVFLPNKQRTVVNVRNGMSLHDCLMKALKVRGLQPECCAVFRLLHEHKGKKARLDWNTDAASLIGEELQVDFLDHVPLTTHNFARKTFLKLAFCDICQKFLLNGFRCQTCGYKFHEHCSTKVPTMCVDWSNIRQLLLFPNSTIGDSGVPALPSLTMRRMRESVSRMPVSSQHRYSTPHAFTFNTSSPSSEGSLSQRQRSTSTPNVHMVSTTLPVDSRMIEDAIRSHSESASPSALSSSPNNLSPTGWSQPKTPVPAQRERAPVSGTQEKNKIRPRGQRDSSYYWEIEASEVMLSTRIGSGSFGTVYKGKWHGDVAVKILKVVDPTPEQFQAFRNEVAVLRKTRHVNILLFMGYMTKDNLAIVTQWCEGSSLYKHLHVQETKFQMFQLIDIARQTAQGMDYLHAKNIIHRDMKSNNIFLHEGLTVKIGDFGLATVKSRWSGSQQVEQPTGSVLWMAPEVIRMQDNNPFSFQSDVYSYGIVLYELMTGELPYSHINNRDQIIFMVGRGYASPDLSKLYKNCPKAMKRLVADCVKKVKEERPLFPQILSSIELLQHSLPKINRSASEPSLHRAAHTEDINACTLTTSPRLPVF
T2 sequence (P67999 24-525): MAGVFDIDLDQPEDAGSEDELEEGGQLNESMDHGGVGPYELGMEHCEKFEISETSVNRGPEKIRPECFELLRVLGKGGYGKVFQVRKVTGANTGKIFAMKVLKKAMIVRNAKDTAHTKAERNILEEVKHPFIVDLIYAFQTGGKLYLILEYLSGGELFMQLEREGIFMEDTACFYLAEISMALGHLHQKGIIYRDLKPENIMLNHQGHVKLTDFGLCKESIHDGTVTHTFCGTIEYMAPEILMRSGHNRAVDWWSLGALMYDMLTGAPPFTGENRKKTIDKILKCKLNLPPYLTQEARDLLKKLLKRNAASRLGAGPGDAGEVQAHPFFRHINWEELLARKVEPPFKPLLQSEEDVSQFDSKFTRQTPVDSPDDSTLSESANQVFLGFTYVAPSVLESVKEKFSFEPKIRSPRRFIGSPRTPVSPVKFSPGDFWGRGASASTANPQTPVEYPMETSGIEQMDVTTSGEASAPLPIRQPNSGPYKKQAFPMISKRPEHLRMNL
T4 sequence (P31749 whole entry T308A): as the sequence (P31749 whole entry) above, with T308A counted along it
T3 sequence (P49137 46-400): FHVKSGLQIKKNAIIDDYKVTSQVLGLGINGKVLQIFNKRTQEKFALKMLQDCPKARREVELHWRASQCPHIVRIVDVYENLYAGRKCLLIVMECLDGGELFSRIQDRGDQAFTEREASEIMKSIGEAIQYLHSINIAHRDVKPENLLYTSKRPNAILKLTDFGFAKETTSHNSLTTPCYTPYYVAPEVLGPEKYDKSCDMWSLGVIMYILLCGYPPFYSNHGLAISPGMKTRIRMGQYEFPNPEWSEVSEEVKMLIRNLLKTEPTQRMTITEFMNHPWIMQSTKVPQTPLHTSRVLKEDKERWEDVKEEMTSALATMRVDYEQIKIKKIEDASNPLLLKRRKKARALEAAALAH

Molecule: CN(C)CCCn1cc(C2=C(c3c[nH]c4ccccc34)C(=O)NC2=O)c2ccccc21 [GF 109203X]
- IC50 (mixed isoforms of PKC): 30 nM
- Inhibition of PK B in vitro (PK B): without inhibiting
- IC50 (MAPKAP-K1β; read-out: IC50, MAPKAP-K1 B): 50 nM
- IC50 (p70 S6 kinase): 100 nM
- Inhibition of c-Raf1 in vitro (c-Raf1): without inhibiting
- Inhibition of MAPKK-1 in vitro (MAPKK-1): without inhibiting
- Inhibition of p42 MAP kinase in vitro (p42 MAP kinase): without inhibiting

Molecule: COc1cccc(-c2cc(=O)c3ccccc3o2)c1N [PD 98059]
- Effect on inhibition of GSK3 by insulin (GSK3): unaffected
- Effect on activation of MAPKAP kinase-1 (MAPKAP kinase-1): prevented
- Effect on insulin activation of RAC-PK (RAC-PKα [1]): essentially unaffected

Molecule: Cn1cc(C2=C(c3cn(CCCSC(=N)N)c4ccccc34)C(=O)NC2=O)c2ccccc21 [Ro 318220]
- IC50 (mixed isoforms of PKC): 5 nM
- IC50 (PK B): 1000 nM
- IC50 (MAPKAP-K1β; read-out: IC50, MAPKAP-K1β): 3 nM
- IC50 (p70 S6 kinase): 15 nM
- Inhibition of c-Raf1 in vitro (c-Raf1): not inhibited significantly
- Inhibition of MAPKK-1 in vitro (MAPKK-1): not inhibited significantly
- Inhibition of p42 MAP kinase in vitro (p42 MAP kinase): not inhibited significantly
- Inhibition of MAPKAP-K2 in vitro (MAPKAP-K2): not inhibited significantly

Molecule: C[S+]([O-])c1ccc(-c2nc(-c3ccncc3)c(-c3ccc(F)cc3)[nH]2)cc1 (stereo not drawn) [SB 203580]
- Effect on activation of RAC-PKα by insulin or IGF-1 (RAC-PKα [2]): had no effect
- Effect on activation of MAPKAP kinase-2 (MAPKAP kinase-2): prevented

Molecule: HA-308A RAC-PKα: HA-tagged RAC-PKα with Thr308 changed to Ala
- Activity as percentage of unstimulated WT enzyme (RAC-PKα [3]): about 40%

Molecule: HA-308D/473D RAC-PK: RAC-PKα with both Thr308 and Ser473 mutated to Asp, constitutively active
- Activity relative to unstimulated (dephosphorylated) WT HA-RAC-PKα (RAC-PKα [4]): 18 fold
- Increase in GSK3 activity on PP2A treatment (GSK3β): 85%
- Activity relative to WT HA-RAC-PKα in unstimulated cells (RAC-PKα [5]): 40 fold

B1: RAC-PKα: human RAC protein kinase α, wild type, SEQ ID NO. 3 (protein)
chain: MNDVAIVKEGWLHKRGEYIKTWRPRYFLLKNDGTFIGYKERPQDVEQRESPLNNFSVAQCQLMKTERPRPNTFIIRCLQWTTVIERTFHVETPEEREEWTTAIQTVADGLKRQEEETMDFRSGSPSDNSGAEEMEVALAKPKHRVTMNEFEYLKLLGKGTFGKVILVKEKATGRYYAMKILKKEVIVAKDEVAHTLTENRVLQNSRHPFLTALKYSFQTHDRLCFVMEYANGGELFFHLSRERVFSEDRARFYGAEIVSALDYLHSEKNVVYRDLKLENLMLDKDGHIKITDFGLCKEGIKDGATMKTFCGTPEYLAPEVLEDNDYGRAVDWWGLGVVMYEMMCGRLPFYNQDHEKLFELILMEEIRFPRTLGPEAKSLLSGLLKKDPTQRLGGGSEDAKEIMQHRFFANIVWQDVYEKKLSPPFKPQVTSETDTRYFDEEFTAQMITITPPDQDDSMECVDSERRPHFPQFSYSASGTA
- Increase of basal p70s6k-Myc activity (p70s6k-Myc): 3.5 fold
- Increase of insulin-stimulated p70s6k-Myc activity (p70s6k-Myc): 3 fold
- Increase in GSK3 activity on PP2A treatment (GSK3β): 68%
